Measurements as given in US4246273A, “1,5-Disubstituted imidazolid-4-ones” (Beecham Group Limited, priority 1978, dated 1981).

System: indomethacin induced gastric damage
Assay: Anti-ulcer activity: inhibition of indomethacin induced gastric damage in the rat
Format: in vivo
Conditions: 100 mg/kg orally, 30 minutes prior to indomethacin 15 mg/kg s.c.; score scale 1-9 after 4 hours; vehicle control 3.71 ± 0.80; P<0.01 (Mann Witney test)
Description: Anti-ulcer activity was assessed by the inhibition of indomethacin induced gastric damage in the rat according to the method of Eleghe (1974) Israeli J. Med. Sci. 10. 1451. Rats were starved overnight and given 15 mg/kg indomethacin subcutaneously and sacrificed 4 hours later. Stomachs were reflated with n. saline, cut along the greater curvature pinned out and scored for gastric damage by the following system:
Score 1-3--according to degree of erythema and slight haemorrhage.
Score 4-6--according to degree of muscosal erosion.
Score 7-9--according to depth of gastric damage.
Groups of 7 rats were used for each treatment and the test compound or vehicle were administered 30 minutes prior to giving the indomethacin. Dose of test compound was 100 mg/kg orally and control groups receiving vehicle only were obtained using the above scoring system and the Mann Witney test applied for significance of difference between the values obtained with the treatments.

CCCCCCC(C)(O)CCN1CN(C)C(=O)C1CCCCCCC(=O)OC (stereo not shown) [Compound 6, 1-(3'-hydroxy-3'-methyl-n-nonyl)-3-methyl-5-(6"-methoxycarbonyl-n-hexyl)-4-imidazolidone]
Test Compound Mean Score ± S.E. of Mean (gastric damage): 0.71 ± 0.42
